Measurements: US20250281424A1 (New York Blood Center, Inc, priority 2020, published 2025)
Values after ≈ are worked out from the molar mass of the structure shown. Like-named read-outs stand apart in the source and are kept apart here.

Key:
[1] = Human microsome stability; format: in vitro ADME; conditions: for half-life at 0.5 μM / microsomal CLint at 0.5 μM: Human microsomes, compound conc = 0.5 μM, n = 1; for half-life at 0.5 μM: read-out: Human microsome stability Half life t1/2; for microsomal CLint at 0.5 μM: read-out: Human microsome stability Intrinsic Clearance Clint (ml/min/mg protein); for intrinsic clearance in human microsome assay / stability in human microsome assay: human microsomes
Source text: (§1) Certain exemplified compounds were examined for ADMET (absorption, distribution, metabolism, excretion and toxicity) profiling using conventional assays with the results shown in the Tables 3A-3C below.

[2] = Kinetic solubility pH 7.4; format: physicochemical
Source text: as §1

[3] = Cytotoxicity HepG2 (MTS reduction); format: cell-based; conditions: human, HepG2 cells; read-out: Cytotox HepG2 EC50
P450 2C19 = P450 2C19 (Homo sapiens, UniProt P33261); experiment: P450 inhibition 2C19; format: in vitro ADME
Chain of P450 2C19 (P33261 whole entry): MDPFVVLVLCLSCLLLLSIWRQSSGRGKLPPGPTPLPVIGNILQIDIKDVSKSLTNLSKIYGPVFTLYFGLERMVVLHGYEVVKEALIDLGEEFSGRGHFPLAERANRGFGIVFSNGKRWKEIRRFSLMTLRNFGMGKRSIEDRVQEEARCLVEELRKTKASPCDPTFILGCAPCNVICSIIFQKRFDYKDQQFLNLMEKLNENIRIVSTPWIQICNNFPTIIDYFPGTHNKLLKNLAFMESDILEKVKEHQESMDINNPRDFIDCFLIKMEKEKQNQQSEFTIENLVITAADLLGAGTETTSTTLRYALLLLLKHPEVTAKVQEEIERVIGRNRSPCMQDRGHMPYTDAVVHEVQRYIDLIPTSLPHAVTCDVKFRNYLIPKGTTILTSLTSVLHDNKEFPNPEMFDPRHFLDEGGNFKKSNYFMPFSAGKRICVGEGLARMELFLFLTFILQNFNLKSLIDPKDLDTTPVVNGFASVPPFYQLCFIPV
Procedure: as §1
(§2) Examples 1 and 3 were evaluated as inhibitors of the five P450s that are the source of most DDI issues. […] The tested compounds meet drug property criteria for IV administration.

[4] = Mouse microsome stability; format: in vitro ADME; conditions: for half-life at 0.5 μM: Mouse microsomes, compound conc = 0.5 μM, n = 1, read-out: Mouse microsome stability Half life t1/2; for intrinsic clearance in mouse microsome assay / stability in mouse microsome assay: mouse microsomes
Source text: as §1

P450 2C9 = P450 2C9 (Homo sapiens, UniProt P11712); experiment: P450 inhibition 2C9; format: in vitro ADME
Chain of P450 2C9 (P11712 whole entry): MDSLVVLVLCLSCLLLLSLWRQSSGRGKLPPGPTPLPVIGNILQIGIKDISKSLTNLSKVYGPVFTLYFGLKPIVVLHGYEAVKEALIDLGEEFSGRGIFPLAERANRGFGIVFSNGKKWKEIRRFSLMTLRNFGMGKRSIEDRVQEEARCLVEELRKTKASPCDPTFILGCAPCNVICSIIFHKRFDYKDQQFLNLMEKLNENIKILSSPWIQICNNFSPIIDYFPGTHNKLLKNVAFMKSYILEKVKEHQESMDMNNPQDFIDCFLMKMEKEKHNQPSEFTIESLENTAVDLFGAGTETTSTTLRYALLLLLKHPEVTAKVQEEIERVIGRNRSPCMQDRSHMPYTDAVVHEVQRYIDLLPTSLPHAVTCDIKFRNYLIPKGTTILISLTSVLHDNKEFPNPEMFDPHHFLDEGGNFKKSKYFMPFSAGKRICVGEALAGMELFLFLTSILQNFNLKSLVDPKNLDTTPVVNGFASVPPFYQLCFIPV
Procedure: as §1, §2

human PF4 = molecular target: T1, human PF4 (Homo sapiens, UniProt P02776); experiment: Inhibition of PF4 tetramer formation (BS3 cross-linking, SDS-PAGE); format: biochemical; conditions: for IC50: read-out: IC50 of PF4 tetramer formation inhibition
T1 construct: PF4 is a 70 amino acid, lysine-rich 7.8 kDa platelet-specific protein; made in house; host or cells: Escherichia coli BL21DE3 pLysS (pT7-7) and/or Drosophila S2 cells
T1 sequence (P02776 32-101): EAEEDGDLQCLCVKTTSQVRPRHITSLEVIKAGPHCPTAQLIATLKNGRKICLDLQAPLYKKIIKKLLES
Method in brief: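 Recombinant human wild-type PF4 (E. coli-expressed, heparin-purified), 10 μg/ml in PBS, incubated with compound 15 min at 37° C or 60 min at room temperature, then cross-linked with 0.2 mM BS3 for 30 min at room temperature. Reducing 12% SDS-PAGE; bands quantified as % tetramer, trimer, dimer, monomer versus compound-free control.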

P450 3A4 (midazolam) = P450 3A4 (midazolam) (Homo sapiens, UniProt P08684); experiment: P450 inhibition 3A4 (midazolam); format: in vitro ADME
Chain of P450 3A4 (midazolam) (P08684 whole entry): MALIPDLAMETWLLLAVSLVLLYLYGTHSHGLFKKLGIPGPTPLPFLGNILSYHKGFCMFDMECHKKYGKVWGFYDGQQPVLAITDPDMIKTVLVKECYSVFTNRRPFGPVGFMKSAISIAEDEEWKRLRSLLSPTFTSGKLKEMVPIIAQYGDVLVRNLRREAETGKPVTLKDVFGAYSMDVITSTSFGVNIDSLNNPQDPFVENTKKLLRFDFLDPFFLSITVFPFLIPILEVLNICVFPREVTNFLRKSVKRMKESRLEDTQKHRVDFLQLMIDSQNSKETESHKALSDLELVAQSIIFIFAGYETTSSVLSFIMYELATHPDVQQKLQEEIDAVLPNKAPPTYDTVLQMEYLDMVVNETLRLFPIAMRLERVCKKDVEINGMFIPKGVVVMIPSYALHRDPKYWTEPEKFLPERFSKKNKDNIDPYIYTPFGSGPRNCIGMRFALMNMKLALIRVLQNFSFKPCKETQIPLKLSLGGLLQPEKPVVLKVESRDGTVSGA
Procedure: as §1, §2

P450 2D6 = P450 2D6 (Homo sapiens, UniProt P10635); experiment: P450 inhibition 2D6; format: in vitro ADME
Chain of P450 2D6 (P10635 whole entry): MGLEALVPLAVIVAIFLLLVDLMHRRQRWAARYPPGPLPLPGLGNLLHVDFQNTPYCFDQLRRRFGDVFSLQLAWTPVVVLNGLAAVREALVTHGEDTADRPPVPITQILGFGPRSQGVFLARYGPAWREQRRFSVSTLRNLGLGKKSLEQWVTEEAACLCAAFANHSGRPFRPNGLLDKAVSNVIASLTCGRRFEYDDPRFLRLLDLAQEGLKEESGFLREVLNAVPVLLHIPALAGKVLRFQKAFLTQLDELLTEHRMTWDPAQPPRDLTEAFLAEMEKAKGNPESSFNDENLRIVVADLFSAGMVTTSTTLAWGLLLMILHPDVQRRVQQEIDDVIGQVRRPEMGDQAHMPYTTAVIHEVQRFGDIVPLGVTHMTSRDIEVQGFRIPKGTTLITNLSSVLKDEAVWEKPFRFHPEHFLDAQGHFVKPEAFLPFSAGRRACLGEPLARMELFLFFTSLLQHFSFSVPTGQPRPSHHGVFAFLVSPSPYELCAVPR
Procedure: as §1, §2

[5] = pH 7.4, aqueous buffer, kinetic from dmso stock

Q: With `CCOC(=O)C1C(=O)c2ccc(C(=O)c3ccc4c(c3)C(=O)C(C(=O)OCC)C4=O)cc2C1=O` (stereo not shown) [Example 3, diethyl 5,5′-carbonylbis(1,3-dioxo-2,3-dihydro-1h-indene-2-carboxylate)] as the compound, how does the half-life at 0.5 μM [1] read?
A: The half-life at 0.5 μM was over 145 min.

Q: And the microsomal CLint at 0.5 μM [1]?
A: The microsomal CLint at 0.5 μM was under 9.5 mL/min/mg.

Q: What about the “intrinsic clearance in human microsome assay” value [1] of the same compound?
A: The value was “low intrinsic clearance”.

Q: What about the “stability in human microsome assay” value [1] of the same compound?
A: The value was “excellent stability”.

Q: And the “aqueous solubility” value [2]?
A: The value was “good aqueous solubility”.

Q: What about the solubility kinetic [2, 5] of the same compound?
A: The solubility kinetic was 88.2 µM (≈ 40.8 µg/mL).

Q: What about the EC50 [3] of the same compound?
A: The EC50 was over 500 µg/mL.

Q: What about the “inhibition of P450 2C19” value (P450 2C19) of the same compound?
A: The value was “no inhibition”.

Q: What about the IC50 (P450 2C19; read-out: P450 Inhibition IC50 2C19) of the same compound?
A: The IC50 was over 100 µM.

Q: And the half-life at 0.5 μM [4]?
A: The half-life at 0.5 μM was over 145 min.

Q: And the “intrinsic clearance in mouse microsome assay” value [4]?
A: Its value is “low intrinsic clearance”.

Q: And the “stability in mouse microsome assay” value [4]?
A: Its value is “excellent stability”.

Q: What about the “inhibition of P450 2C9” value (P450 2C9) of the same compound?
A: Its value is “only moderate inhibition”.

Q: What about the IC50 (P450 2C9; read-out: P450 Inhibition IC50 2C9) of the same compound?
A: Its IC50 is 16.7 µM.

Q: What about the inhibition at 100 µM (human PF4; 100 μM inhibitor, read-out: % inhibition of PF4 tetramer formation at single concentration of inhibitor) of the same compound?
A: Its inhibition at 100 µM is 100%.

Q: And the “inhibition of PF4 tetramerization” value (human PF4; FIG. 6A)?
A: Its value is “dose-dependent inhibition”.

Q: And the IC50 (human PF4)?
A: The IC50 was 2 µM.

Q: What about the “inhibition of P450 3A4 midazolam” value (P450 3A4 (midazolam)) of the same compound?
A: The value was “no inhibition”.

Q: And the IC50 (P450 3A4 (midazolam); midazolam, read-out: P450 Inhibition IC50 3A4 (midazolam))?
A: The IC50 was over 100 µM.

Q: What about the “inhibition of P450 2D6” value (P450 2D6) of the same compound?
A: Its value is “no inhibition”.

Q: What about the IC50 (P450 2D6; read-out: P450 Inhibition IC50 2D6) of the same compound?
A: The IC50 was over 100 µM.

Q: Which results are given for `CC(=O)C1C(=O)c2ccc(C(=O)c3ccc4c(c3)C(=O)C(C(C)=O)C4=O)cc2C1=O` (stereo not shown) [Example 1, 5,5′-carbonylbis(2-acetyl-1h-indene-1,3(2h)-dione)]?
A: half-life at 0.5 μM [1]: 86.6 min; microsomal CLint at 0.5 μM [1]: 15.8 mL/min/mg; intrinsic clearance in human microsome assay [1]: low intrinsic clearance; stability in human microsome assay [1]: excellent stability; solubility kinetic ([2]; pH 7.4): >200 µM; solubility kinetic [2, 5]: > 200 µM; EC50 [3]: > 1000 µg/mL; IC50 (P450 2C19): > 100 µM; inhibition of P450 2C19 (P450 2C19): no inhibition; half-life at 0.5 μM [4]: > 145 min; intrinsic clearance in mouse microsome assay [4]: low intrinsic clearance; stability in mouse microsome assay [4]: excellent stability; IC50 (P450 2C9): 31.9 µM; inhibition of P450 2C9 (P450 2C9): only moderate inhibition; IC50 (human PF4): 7 µM; IC50 (P450 3A4 (midazolam)): > 100 µM; inhibition of P450 3A4 midazolam (P450 3A4 (midazolam)): no inhibition; IC50 (P450 2D6): > 100 µM; inhibition of P450 2D6 (P450 2D6): no inhibition
